Test [1] deals with T1, intracellular arginase in macrophages isolated from murine bone marrow (BMDM) (Mus musculus, UniProt Q61176).
T1 construct: endogenous in cells; host or cells: primary bone marrow derived macrophages from Balb/c mice, M-CSF and IL-4 treated
T1 sequence (Q61176 1-323): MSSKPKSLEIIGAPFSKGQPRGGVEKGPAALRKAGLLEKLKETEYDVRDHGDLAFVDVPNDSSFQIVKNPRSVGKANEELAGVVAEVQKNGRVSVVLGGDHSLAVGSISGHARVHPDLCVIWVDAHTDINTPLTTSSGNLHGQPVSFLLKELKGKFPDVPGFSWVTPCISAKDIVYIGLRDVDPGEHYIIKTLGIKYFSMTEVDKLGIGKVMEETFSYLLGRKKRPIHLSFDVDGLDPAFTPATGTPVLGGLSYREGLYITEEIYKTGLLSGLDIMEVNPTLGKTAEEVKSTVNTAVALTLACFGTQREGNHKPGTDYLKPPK
In words: Cell-based assay: intracellular arginase in bone marrow derived macrophages (BMDM), urea level. Also noted: species or system Balb/c mice. To be noted: murine BMDM with M-CSF and IL-4, urea measured 24 hours after compound; * = most potent diastereoisomer or mixture of diastereoisomers; read-out: Activity Class (BMDM). Here is the method:
Efficacy of Selected Examples Towards Intracellular Arginase in Macrophages Isolated from Murine Bone Marrow—Bone Marrow Derived Macrophages (BMDM)
Materials & Methods: The assay was performed according to modified literature protocol modification (Pineda-Torra I et al., Methods Mol Biol. 2015; 1339:101-9. Mia S et al. Scand J Immunol. 2014 May; 79(5):305-14). The femurs and tibias were isolated from Balb/c mice. Bones were cleaned from all attached tissues by using sterile swab without affecting the bone structure. Bones were sterilized by immersion in 70% ethanol for 5 min and then rinsed in PBS. The sides of the bones were cut off and flush with cold sterile PBS by using 26-G needle S into a 50 mL sterile tube with a cell strainer (Falcon™, Cat. No. U00149), until bone cavity appeared white. Then the cells were centrifuged (5 min at 500×G, 4° C.), washed twice with PBS and counted. Cells were plated in Petri dish in density of 1×10^6/mL and cultured in DMEM (Gibco, Cat. No. 31331-029) with 10% FBS, 1% pen-strep and 50 ng/mL M-CSF (PeproTech, Cat. No. 315-02), (37° C., 5% CO2). After five days cells were subcultured into P96 plate (BD, Cat. No. 353072) in density of 64 000 cells/well in medium supplemented with 50 ng/mL M-CSF and 20 ng/mL IL-4 (Biomibo Cat. No. 214-1). One day later exemplary compounds (dissolved in PBS) were added in several different concentrations and 24 hours later the level of urea was measured in each well (Jung D et al., Clin Chem. 1975, 21(8):1136-40). The concentration of urea in the absence of any compound was considered as the maximum. The absorbance of cell culture media (background) was subtracted from all the values.
For selected examples the activity class for ARG2 was estimated based on % of inhibition for 1 μM and 100 μM concentration of tested compounds.

The target in test [2] is T2, recombinant human arginase 1 (Homo sapiens, UniProt P05089).
T2 construct: purchased Biolegend 552502
T2 sequence (P05089 1-322): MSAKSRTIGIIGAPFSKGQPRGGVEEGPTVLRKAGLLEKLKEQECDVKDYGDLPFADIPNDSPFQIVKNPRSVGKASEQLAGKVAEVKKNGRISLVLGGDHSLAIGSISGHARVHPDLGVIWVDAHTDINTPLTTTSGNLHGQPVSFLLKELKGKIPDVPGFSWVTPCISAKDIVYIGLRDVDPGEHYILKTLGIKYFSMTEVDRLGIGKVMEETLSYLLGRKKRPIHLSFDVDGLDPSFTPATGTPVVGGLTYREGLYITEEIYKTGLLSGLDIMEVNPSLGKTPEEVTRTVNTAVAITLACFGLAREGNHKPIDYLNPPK
In words: Human arginase activity assay (urea measurement), arginase 1. Format: biochemical. The settings on record: recombinant human arginase 1, pH 7.4, 37° C., 60 min; * = value for the most potent diastereoisomer or the mixture of diastereoisomers; read-out: Activity Class (ARG I). The method, boiled down: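 Arginase activity was measured as urea formed from L-arginine over 60 min at 37 °C. Reaction stopped with oPA/NED acidic reagent and absorbance read at 530 nm after 20 min colour development. Values were background-subtracted and normalised to no-compound activity, and IC50 was derived from percent-inhibition concentration-response regression.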

The target in test [3] is T3, recombinant human arginase 2 (Homo sapiens, UniProt P78540).
T3 construct: made in house; host or cells: CHO
T3 sequence (P78540 23-354): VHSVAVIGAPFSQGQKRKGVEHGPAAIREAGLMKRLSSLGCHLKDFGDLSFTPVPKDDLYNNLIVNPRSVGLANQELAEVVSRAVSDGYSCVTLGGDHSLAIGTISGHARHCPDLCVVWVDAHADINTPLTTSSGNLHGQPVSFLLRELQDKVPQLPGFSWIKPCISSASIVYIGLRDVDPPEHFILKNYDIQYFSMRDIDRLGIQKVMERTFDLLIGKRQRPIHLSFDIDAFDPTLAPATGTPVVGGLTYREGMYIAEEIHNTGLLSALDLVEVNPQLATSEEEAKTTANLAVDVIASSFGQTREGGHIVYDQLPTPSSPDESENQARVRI
In words: Human arginase activity assay (urea measurement), arginase 2. In kind it is biochemical. The settings on record: for selected examples class estimated from % of inhibition at 1 μM and 100 μM, * = most potent diastereoisomer or mixture of diastereoisomers, read-out: Activity Class (ARG II). The gist of the method:
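Recombinant CHO-expressed human arginase 2 converted 20 mM L-arginine with 150 μM MnCl2 in phosphate buffer pH 7.4 for 60 min at 37 °C. Urea was measured colorimetrically at 530 nm after background subtraction, and IC50 fitted. Some compounds were classed by % inhibition at 1 μM and 100 μM.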

Turning to `CCN(C)C[C@@H]1CC[C@@H](CCB(O)O)C[C@]1(N)C(=O)O` [Example 69, (1R,2S,5R)-1-amino-5-(2-boronoethyl)-2-((ethyl(methyl)amino)methyl)cyclohexane-1-carboxylic acid], the values for the IC50 in test [1], in test [2] and in test [3] were 100 to 1000 nM, 1 to 100 nM and 1 to 100 nM, respectively.

With `N[C@]1(C(=O)O)C[C@H](CCB(O)O)CC[C@H]1CN1CCCCC1` [Example 70, (1R,2S,5R)-1-amino-5-(2-boronoethyl)-2-(piperidin-1-ylmethyl)cyclohexane-1-carboxylic acid], the IC50 in test [1] was 1 to 100 nM; in test [2], 1 to 100 nM; in test [3] it was 100 to 1000 nM.

Turning to `N[C@]1(C(=O)O)C[C@H](CCB(O)O)CC[C@H]1CN1CCCC1` [Example 71, (1R,2S,5R)-1-amino-5-(2-boronoethyl)-2-(pyrrolidin-1-ylmethyl)cyclohexane-1-carboxylic acid], the IC50 in test [1], in test [2] and in test [3] was 1 to 100 nM in each case.

These data come from patent US12053451B2, “Arginase inhibitors and their therapeutic applications” (OncoArendi Therapeutics S.A., priority 2016, dated 2024).
